According to patent publication US8916702B2 (priority 2012, dated 2014):
Read-outs that look alike come from different tables or passages of the source.

Test system: HCV pseudoparticles (genotype 1a HCV E1 and E2 envelope, H77C isolate)
Experiment: microbe, parasite or virus in culture
Format: cell-based
Settings: Hepatitis C virus
[1] = Huh-7, 48 h, read-out: Activity (EC50 class), HCV pseudoparticle infection of Huh7 cells, luciferase 2 days after infection, EC50 expressed as class A/B
[2] = Huh-7, read-out: Activity (EC50 class), HCV pseudoparticles (genotype 1a, H77C) in Huh7 cells, EC50 expressed as class A/B
[3] = Huh-7, 48 h, read-out: Activity (EC50 class), HCV pseudoparticles, Huh7 cells, luciferase 2 days after infection, average of duplicates
[4] = Huh-7, 48 h, HCV pseudoparticles, Huh7 cells, luciferase 2 days after infection, average of duplicates

SMILES | EC50 [1] [nM] | EC50 [2] [nM] | further results
CC(C)(CNC(=O)C(=O)Nc1ccc(F)c(F)c1)CNC(=O)c1ccc(Nc2nc(NC3(c4ccc(Cl)cc4)CC3)nc(OCC(F)(F)F)n2)cc1 [Compound 1556] | 0.01 to 10 | – | –
CCC(CC)NC(=O)C(=O)NCCC(NC(=O)c1ccc(Nc2nc(NC3(c4ccc(Cl)cc4)CC3)nc(OCC(F)(F)F)n2)cc1)C(=O)OC (centres unmarked) [Compound 1106] | 0.01 to 10 | – | –
C[C@@H](NC(=O)C(=O)NC[C@H](NC(=O)c1ccc(Nc2nc(NC3(c4ccc(Cl)cc4)CC3)nc(OCC(F)(F)F)n2)cc1)C(=O)O)C1CCCCC1 [Compound 1476] | 0.01 to 10 | – | –
O=C(NCC[C@H](NC(=O)c1ccc(Nc2nc(NC3(c4ccc(Cl)cc4)CC3)nc(OCC(F)(F)F)n2)cc1)C(=O)O)C(=O)Nc1cccc(Cl)c1 [Compound 1500] | 0.01 to 10 | – | –
Cc1nnnn1-c1ccc(NC(=O)C(=O)NCC[C@H](NC(=O)c2ccc(Nc3nc(NC4(c5ccc(Cl)cc5)CC4)nc(OCC(F)(F)F)n3)cc2)C(=O)O)cc1 [Compound 3236] | – | 0.01 to 10 | –
O=C(NC[C@H](NC(=O)c1ccc(Nc2nc(NC3(c4ccc(Cl)cc4)CC3)nc(OCC(F)(F)F)n2)cc1)C(=O)Cl)C(=O)Nc1cccc(OCc2ccccc2)c1 [Compound 3742] | – | – | EC50 [3]: 0.01 to 10 nM
COc1cccc(CCNC(=O)C(=O)NCC[C@H](NC(=O)c2ccc(Nc3nc(NC4(c5ccc(Cl)cc5)CC4)nc(OCC(F)(F)F)n3)cc2)C(=O)O)c1 [Compound 1330] | 0.01 to 10 | – | –
NC(=O)C(=O)N(CCO)CCCNC(=O)c1ccc(Nc2nc(NC3(c4ccc(Cl)cc4)CC3)nc(OCC(F)(F)F)n2)cc1 [Compound 3498] | – | 0.01 to 10 | –
COC(=O)[C@H](CNC(=O)C(=O)NCCc1ccccc1)NC(=O)c1ccc(Nc2nc(NC3(c4ccc(Cl)cc4)CC3)nc(OCC(F)(F)F)n2)cc1 [Compound 1284] | 0.01 to 10 | – | –
COC(=O)[C@H](CNC(=O)C(=O)Nc1cccc(-c2nncn2C)c1)NC(=O)c1ccc(Nc2nc(NC3(c4ccc(Cl)cc4)CC3)nc(OCC(F)(F)F)n2)cc1 [Compound 3719] | – | – | EC50 [3]: 0.01 to 10 nM
COC(=O)[C@H](CCNC(=O)C(=O)Nc1ccc(O)cc1)NC(=O)c1ccc(Nc2nc(NC3(c4ccc(Cl)cc4)CC3)nc(OCC(F)(F)F)n2)cc1 [Compound 1526] | 0.01 to 10 | – | –
O=C(NC[C@H](NC(=O)c1ccc(Nc2nc(NC3(c4ccc(Cl)cc4)CC3)nc(OCC(F)(F)F)n2)cc1)C(=O)O)C(=O)Nc1cccc(C(F)(F)F)c1 [Compound 1359] | 0.01 to 10 | – | –
COC(=O)[C@H](CCNC(=O)C(=O)NCC(C)(C)C)NC(=O)c1ccc(Nc2nc(NC3(c4ccc(Cl)cc4)CC3)nc(OCC(F)(F)F)n2)cc1 [Compound 1195] | 0.01 to 10 | – | –
CNC(=O)C(=O)NCC[C@H](NC(=O)c1ccc(Nc2nc(NC3(c4ccc(Cl)cc4)CC3)nc(OCC(F)(F)F)n2)cc1)C(=O)O [Compound 1014, (S)-2-(4-(4-(1-(4-chlorophenyl)cyclopropylamino)-6-(2,2,2-trifluoroethoxy)-1,3,5-triazin-2-ylamino)benzamido)-4-(2-(methylamino)-2-oxoacetamido)butanoic acid] | 0.01 to 10 | – | –
COC(=O)[C@H](CCNC(=O)C(=O)NCC1CCCCCC1)NC(=O)c1ccc(Nc2nc(NC3(c4ccc(Cl)cc4)CC3)nc(OCC(F)(F)F)n2)cc1 [Compound 1197] | 0.01 to 10 | – | –
CC(C)(CNC(=O)C(=O)Oc1cncs1)CNC(=O)c1ccc(Nc2nc(NC3(c4ccc(Cl)cc4)CC3)nc(OCC(F)(F)F)n2)cc1 [Compound 3179] | – | 0.01 to 10 | –
O=C(NCc1ccc(F)cc1F)C(=O)NC[C@H](NC(=O)c1ccc(Nc2nc(NC3(c4ccc(Cl)cc4)CC3)nc(OCC(F)(F)F)n2)cc1)C(=O)O [Compound 1168] | 0.01 to 10 | – | –
O=C(NCCCNC(=O)c1ccc(Nc2nc(NC3(c4ccc(Cl)cc4)CC3)nc(OCC(F)(F)F)n2)cc1)C(=O)NCc1ccc(F)cc1 [Compound 3357] | – | 0.01 to 10 | –
COc1ccccc1CCNC(=O)C(=O)NCC[C@H](NC(=O)c1ccc(Nc2nc(NC3(c4ccc(Cl)cc4)CC3)nc(OCC(F)(F)F)n2)cc1)C(=O)O [Compound 1329] | 0.01 to 10 | – | –
CCC1(CC)CC1CNC(=O)C(=O)NCC[C@H](NC(=O)c1ccc(Nc2nc(NC3(c4ccc(Cl)cc4)CC3)nc(OCC(F)(F)F)n2)cc1)C(=O)O (some centres unmarked) [Compound 1209] | 0.01 to 10 | – | –
Cc1noc2ccc(NC(=O)C(=O)NCC(C)(C)CNC(=O)c3ccc(Nc4nc(NC5(c6ccc(Cl)cc6)CC5)nc(OCC(F)(F)F)n4)cc3)cc12 [Compound 3339] | – | 0.01 to 10 | –
COC(=O)[C@H](CCNC(=O)C(=O)Nc1ccc(C(C)(C)C)cc1)NC(=O)c1ccc(Nc2nc(NC3(c4ccc(Cl)cc4)CC3)nc(OCC(F)(F)F)n2)cc1 [Compound 3329] | – | 0.01 to 10 | –
O=C1CC(NC(=O)C(=O)NCC[C@H](NC(=O)c2ccc(Nc3nc(NC4(c5ccc(Cl)cc5)CC4)nc(OCC(F)(F)F)n3)cc2)C(=O)O)CCN1 (some centres unmarked) [Compound 1116] | 10 to 1000 | – | –
CCc1ccnn1CC1(CNC(=O)C(=O)NCC[C@H](NC(=O)c2ccc(Nc3nc(NC4(c5ccc(Cl)cc5)CC4)nc(OCC(F)(F)F)n3)cc2)C(=O)O)CC1 [Compound 1430] | 0.01 to 10 | – | –

SMILES | EC50 [1] [nM] | EC50 [2] [nM] | further results
O=C(NCC[C@H](NC(=O)c1ccc(Nc2nc(NC3(c4ccc(Cl)cc4)CC3)nc(OCC(F)(F)F)n2)cc1)C(=O)O)C(=O)Nc1ccc(OC2CCOCC2)cc1 [Compound 3546] | – | 0.01 to 10 | –
CC(C)(CNC(=O)C(=O)Nc1ccccc1-n1cnnn1)CNC(=O)c1ccc(Nc2nc(NC3(c4ccc(Cl)cc4)CC3)nc(OCC(F)(F)F)n2)cc1 [Compound 3046] | – | 0.01 to 10 | –
CCc1cccc(NC(=O)C(=O)NC[C@H](NC(=O)c2ccc(Nc3nc(NC4(c5ccc(Cl)cc5)CC4)nc(OCC(F)(F)F)n3)cc2)C(=O)Cl)c1 [Compound 3744] | – | – | EC50 [4]: 1.18 nM; EC50 [3]: 0.01 to 10 nM
CC(C)CNC(=O)C(=O)N(C)CCCN(C)C(=O)c1ccc(Nc2nc(NC3(c4ccc(Cl)cc4)CC3)nc(OCC(F)(F)F)n2)cc1 [Compound 3431] | – | 0.01 to 10 | –
COC(=O)[C@H](CCNC(=O)C(=O)Nc1ccnc(OC)c1)NC(=O)c1ccc(Nc2nc(NC3(c4ccc(Cl)cc4)CC3)nc(OCC(F)(F)F)n2)cc1 [Compound 1217] | 0.01 to 10 | – | –
COC(=O)[C@H](CCNC(=O)C(=O)Nc1ccc(-n2ccnc2C)cc1)NC(=O)c1ccc(Nc2nc(NC3(c4ccc(Cl)cc4)CC3)nc(OCC(F)(F)F)n2)cc1 [Compound 3320] | – | 0.01 to 10 | EC50 (Huh-7, 48 h, HCV pseudoparticles (genotype 1a, H77C) in Huh7 cells, average of duplicate, luciferase 2 days after infection): 8.8 nM
Cc1nc(-c2cccc(NC(=O)C(=O)NC[C@H](NC(=O)c3ccc(Nc4nc(NC5(c6ccc(Cl)cc6)CC5)nc(OCC(F)(F)F)n4)cc3)C(=O)Cl)c2)no1 [Compound 3785] | – | – | EC50 [3]: 0.01 to 10 nM
CNS(=O)(=O)c1cccc(NC(=O)C(=O)NCC[C@H](NC(=O)c2ccc(Nc3nc(NC4(c5ccc(Cl)cc5)CC4)nc(OCC(F)(F)F)n3)cc2)C(=O)O)c1 [Compound 3651] | – | – | EC50 [3]: 0.01 to 10 nM
CC(C)(CNC(=O)C(=O)Nc1ccc2[nH]nnc2c1)CNC(=O)c1ccc(Nc2nc(NC3(c4ccc(Cl)cc4)CC3)nc(OCC(F)(F)F)n2)cc1 [Compound 3352] | – | 0.01 to 10 | –
COC(=O)[C@H](CCNC(=O)C(=O)Nc1cccc(F)c1)NC(=O)c1ccc(Nc2nc(NC3(c4ccc(Cl)cc4)CC3)nc(OCC(F)(F)F)n2)cc1 [Compound 1227] | 0.01 to 10 | – | –
Cc1ccc(NC(=O)C(=O)NCC(C)(C)CNC(=O)c2ccc(Nc3nc(NC4(c5ccc(Cl)cc5)CC4)nc(OCc4ccc(C(C)C)cc4)n3)cc2)cc1 [Compound 3839] | – | – | EC50 [4]: 0.078 nM; EC50 [3]: 0.01 to 10 nM
COC(=O)[C@H](CNC(=O)C(=O)NC1CCCC(O)C1)NC(=O)c1ccc(Nc2nc(NC3(c4ccc(Cl)cc4)CC3)nc(OCC(F)(F)F)n2)cc1 (some centres unmarked) [Compound 1056] | 0.01 to 10 | – | –
O=C(NCC[C@H](NC(=O)c1ccc(Nc2nc(NC3(c4ccc(Cl)cc4)CC3)nc(OCC(F)(F)F)n2)cc1)C(=O)O)C(=O)NC1CCCCCC1 [Compound 1122] | 0.01 to 10 | – | –
CNC(=O)C(=O)NCC[C@H](NC(=O)c1ccc(Nc2nc(NC3(c4ccc(Cl)cc4)CC3)nc(OCC(F)(F)F)n2)cc1)C(=O)OC [Compound 1010, (S)-methyl 2-(4-(4-(1-(4-chlorophenyl)cyclopropylamino)-6-(2,2,2-trifluoroethoxy)-1,3,5-triazin-2-ylamino)benzamido)-4-(2-(methylamino)-2-oxoacetamido)butanoate] | 0.01 to 10 | – | –
CCC(CC)NC(=O)C(=O)NC[C@H](NC(=O)c1ccc(Nc2nc(NC3(c4ccc(Cl)cc4)CC3)nc(OCC(F)(F)F)n2)cc1)C(=O)O [Compound 1091] | 0.01 to 10 | – | –
COC(=O)[C@H](CCNC(=O)C(=O)NCC1CCCN(C(=O)OC(C)(C)C)C1)NC(=O)c1ccc(Nc2nc(NC3(c4ccc(Cl)cc4)CC3)nc(OCC(F)(F)F)n2)cc1 (some centres unmarked) [Compound 1200] | 0.01 to 10 | – | –
O=C(NCC(O)CNC(=O)c1ccc(Nc2nc(NC3(c4ccc(Cl)cc4)CC3)nc(OCC(F)(F)F)n2)cc1)C(=O)NC1CCCCC1 (centres unmarked) [Compound 3463] | – | 0.01 to 10 | –
Cc1ccc(NC(=O)C(=O)NCC(C)(C)CNC(=O)c2ccc(Nc3nc(NC4(c5ccc(Cl)cc5)CC4)nc(OCC(F)(F)F)n3)cc2)cc1F [Compound 3044] | – | 0.01 to 10 | –
O=C(NCCCCNC(=O)c1ccc(Nc2nc(NC3(c4ccc(Cl)cc4)CC3)nc(OCC(F)(F)F)n2)cc1)C(=O)NC1CCCCC1 [Compound 3398] | – | 0.01 to 10 | –
O=C(NC[C@H](NC(=O)c1ccc(Nc2nc(NC3(c4ccc(Cl)cc4)CC3)nc(OCC(F)(F)F)n2)cc1)C(=O)O)C(=O)Nc1cccnc1 [Compound 1367] | 0.01 to 10 | – | –
Cc1ccc2sc(NC(=O)C(=O)NCC(C)(C)CNC(=O)c3ccc(Nc4nc(NC5(c6ccc(Cl)cc6)CC5)nc(OCC(F)(F)F)n4)cc3)nc2c1 [Compound 3818] | – | – | EC50 [3]: 0.01 to 10 nM
Cc1ccc(NC(=O)C(=O)NCC(C)(C)CNC(=O)c2ccc(Nc3nc(NC4(c5ccc(Cl)cc5)CC4)nc(OCc4ccc(Cl)cc4)n3)cc2)cc1 [Compound 3849] | – | – | EC50 [3]: 0.01 to 10 nM
COc1ccc(NC(=O)C(=O)NCC(C)(C)CNC(=O)c2ccc(Nc3nc(NC4(c5ccc(Cl)cc5)CC4)nc(OCC(F)(F)F)n3)cc2)c(C(F)(F)F)c1 [Compound 3456] | – | 0.01 to 10 | –
